{
  "source": "PubChem BioAssay AID1996",
  "data": [
    {"details": "buffer; pH 7.4; 200.0 µM", "units": {"solubility kinetic": "µg/mL"}, "values": [
      {"compound": "CC1CCC(C(C)C)C(=O)/C1=C/c1ccc(N)cc1", "note": "(stereo not given)", "solubility kinetic": 3.3},
      {"compound": "O=C(O)CSc1nc2ccccc2nc1Cc1ccccc1F", "solubility kinetic": 47.7},
      {"compound": "CCCN(CC(=O)Nc1ccccc1OC)C(=O)Cc1ccccc1F", "solubility kinetic": 38.9},
      {"compound": "Cl.Oc1ccc(CC2(N3CCCC3)CCCCC2)cc1", "solubility kinetic": 40.5},
      {"compound": "CCN(CC)CC(O)Cn1c(-c2cccc(Cl)c2)nc2cc(C)c(C)cc21", "note": "(stereo not given)", "solubility kinetic": 53.4},
      {"compound": "CC1CN(C(=O)COC(=O)c2ccc(Cl)c(N)c2)CC(C)O1", "note": "(stereo not given)", "solubility kinetic": "> 49"},
      {"compound": "COc1cccc(CC(=O)Nc2ccccc2N2CCCC2)c1", "solubility kinetic": 43.9},
      {"compound": "CNc1snc(C)c1C(=O)OCC(=O)N(C)Cc1ccccc1", "solubility kinetic": 49.8},
      {"compound": "CC(CN1CCCCC1)NC(=O)c1cccs1", "note": "(stereo not given)", "solubility kinetic": "> 37.9"},
      {"compound": "O=C(NCc1cccnc1)C1CC(c2ccccc2O)=NO1", "note": "(stereo not given)", "solubility kinetic": "> 44.6"},
      {"compound": "COC(=O)c1cccc(NC(=O)CN2C(=O)c3ccccc3C2=O)c1", "solubility kinetic": 21.3},
      {"compound": "O=C(Nc1ccc2c(c1)OCO2)C1CC1", "solubility kinetic": "> 30.8"},
      {"compound": "CNC(=O)c1ccc(NC(=O)CCc2c(C)noc2C)cc1", "solubility kinetic": "> 45.2"},
      {"compound": "N#Cc1ccc(C(=O)OCC(=O)N2CCOCC2)cc1", "solubility kinetic": "> 41.1"},
      {"compound": "CNC(=O)CSc1nc(SC)ns1", "solubility kinetic": "> 35.3"},
      {"compound": "CC(C)c1ccc(-c2c(NCCc3ccccc3)c(=O)c2=O)cc1", "solubility kinetic": 0.9},
      {"compound": "Cc1cccc(C(=O)NCC(c2ccco2)N2CCc3ccccc32)c1", "note": "(stereo not given)", "solubility kinetic": 8.2},
      {"compound": "CCn1cc(S(=O)(=O)Nc2cccnc2)cn1", "solubility kinetic": "> 37.8"},
      {"compound": "COc1cccc(-c2nc(CCl)cs2)c1OC.Cl", "solubility kinetic": 32.4},
      {"compound": "CC(C)(C)c1ccc(/C=C2\\SC(=O)N=C2N)cc1", "solubility kinetic": "< 0.3"},
      {"compound": "Cc1ccccc1OCC(=O)OCC(=O)NCC1CCCCC1", "solubility kinetic": 7.6},
      {"compound": "COc1ccccc1/C=C/C(=O)NC(=S)N1CCN(C)CC1", "solubility kinetic": "> 47.9"},
      {"compound": "Cc1ccc(S(=O)(=O)Nc2ccc3c(c2)nc(C)n3C)cc1", "solubility kinetic": 0.8},
      {"compound": "Oc1ccc(Br)cc1CNc1cccc2cccnc12", "solubility kinetic": 1},
      {"compound": "CC(=O)NCc1cc(-c2ccc(Cl)cc2)no1", "solubility kinetic": 37.2},
      {"compound": "CC1CC(C)CN(CC(O)COC2CC(C)CC(C)(C)C2)C1.Cl", "note": "(stereo not given)", "solubility kinetic": 47.9},
      {"compound": "COc1ccc(C(CC(=O)N2CCCCC2)C(C)C)cc1", "note": "(stereo not given)", "solubility kinetic": "> 43.4"},
      {"compound": "C=CCN(c1ccccc1OC)S(=O)(=O)c1cccc(C(=O)OCC(=O)N2CC(C)OC(C)C2)c1", "note": "(stereo not given)", "solubility kinetic": 52.7},
      {"compound": "O=C(CNC(=O)c1cccc(F)c1)NC1CC1", "solubility kinetic": "> 35.4"},
      {"compound": "Brc1ccccc1C1Nc2cccc3cccc(c23)N1", "solubility kinetic": 2.8},
      {"compound": "O=S(=O)(c1ccccc1F)N1CCc2ccccc2C1", "solubility kinetic": "< 0.6"},
      {"compound": "CC(C)NC(=O)C1=NN(c2ccccc2)C(=O)CC1", "solubility kinetic": "> 38.9"},
      {"compound": "Cc1onc(-c2ccccc2)c1-c1ccnc(N)n1", "solubility kinetic": 33.8},
      {"compound": "Cc1cccc(NC(=O)COC(=O)COc2ccc3c(c2)CCC3)c1", "solubility kinetic": 5.7},
      {"compound": "O=C(NCc1cccnc1)c1cnc2ccccc2n1", "solubility kinetic": "> 39.6"},
      {"compound": "CN(c1ccccc1)c1nccc(=O)[nH]1", "solubility kinetic": "> 30.2"},
      {"compound": "CN1CCC(NC(=O)NC2CCCCC2)CC1", "solubility kinetic": "> 35.9"},
      {"compound": "COc1cccc(C2CC(=O)Nc3cc(OC)c(OC)cc32)c1", "note": "(stereo not given)", "solubility kinetic": 20.3},
      {"compound": "CC(=O)Nc1ccc(S(=O)(=O)Nc2ccc(C)c([N+](=O)[O-])c2)cc1", "solubility kinetic": "> 52.4"},
      {"compound": "Br.Cc1ccnc(Nc2nc(-c3sc(C)nc3C)cs2)c1", "solubility kinetic": 3.6},
      {"compound": "C=CCNC(=O)/C(C#N)=C/c1ccc(C)o1", "solubility kinetic": "> 32.4"},
      {"compound": "Cc1ccccc1OCC(=O)Nc1cnn(CCCC(=O)O)c1", "solubility kinetic": "> 47.6"},
      {"compound": "Cc1ccc2cc([N+](=O)[O-])ccc2n1", "solubility kinetic": 20.5},
      {"compound": "CC(=O)N(C)c1ccc(NC(=O)Cc2cccc3ccccc23)cc1", "solubility kinetic": 3.9},
      {"compound": "Fc1cccc(NC(=S)N2CCc3ccccc32)c1", "solubility kinetic": 6.3},
      {"compound": "CCCCCOc1ccc(C(=O)OC(C)C(=O)NCc2ccco2)cc1", "note": "(stereo not given)", "solubility kinetic": 2.9},
      {"compound": "NS(=O)(=O)c1cccc(NC(=O)c2cccc(N3C(=O)c4ccccc4C3=O)c2)c1", "solubility kinetic": 12.2},
      {"compound": "O=C(/C=C/c1ccc2c(c1)OCO2)NCc1ccncc1", "solubility kinetic": 42.1},
      {"compound": "CC(C)(C)C(=O)Nc1ccc(-c2cn3cccnc3n2)cc1", "solubility kinetic": 42.6},
      {"compound": "Nc1cc(N)nc(SCC(=O)Nc2ccccc2N2CCOCC2)n1", "solubility kinetic": 49.6},
      {"compound": "COc1ccc(NC(=O)C2CCCN(c3cnccn3)C2)cc1", "note": "(stereo not given)", "solubility kinetic": "> 46.9"},
      {"compound": "COc1ccc(Cc2nc3ccccc3n2C)cc1.Cl", "solubility kinetic": 42.3},
      {"compound": "C=CCN1C(=O)C2(OCCCO2)c2cc(CCCC)ccc21", "solubility kinetic": 4.5},
      {"compound": "Cc1nc2c(C)cccc2c2c1CCS2", "solubility kinetic": 0.5},
      {"compound": "Cc1ccc2oc(=O)n(Cc3ccc(F)cc3)c2c1", "solubility kinetic": 2},
      {"compound": "C=CCn1c(N2CCCC2)nc2c1c(=O)n(C)c(=O)n2C", "solubility kinetic": "> 43.4"},
      {"compound": "Cc1cccc(N=C2CSC(=O)N2)c1", "solubility kinetic": "> 30.9"},
      {"compound": "O=C(Cn1cnc([N+](=O)[O-])c1)NCCc1ccccc1", "solubility kinetic": "> 41.1"},
      {"compound": "CC(=O)c1cccc(OCC(O)CNCCOc2ccc(C)cc2)c1", "note": "(stereo not given)", "solubility kinetic": 47.6},
      {"compound": "O=C(Nc1cccc2ccccc12)c1ccc([N+](=O)[O-])o1", "solubility kinetic": 40.3}
    ]}
  ]
}
